Assay results from patent publication US7560466B2, “Methods of treating or preventing autoimmune diseases with 2,4-pyrimidinediamine compounds” (Rigel Pharmaceuticals, Inc., priority 2003, dated 2009).
Where two headings read alike, the source gives them in different places. Blank lines part the entries; values can stand above or below the molecule they belong to.

Tested on: cultured human mast cells (CHMC), IgE-induced degranulation
Assay: CHMC low cell density IgE activation: tryptase assay
Type: cell-based
Method: Inhibition of degranulation was measured at both low and high cell density by quantifying the release of the granule specific factors tryptase, histamine and hexosaminidase. Inhibition of release and/or synthesis of lipid mediators was assessed by measuring the release of leukotriene LTC4 and inhibition of release and/or synthesis of cytokines was monitored by quantifying TNF-α, IL-6 and IL-13. Tryptase and hexosaminidase were quantified using fluorogenic substrates as described in their respective examples. […] The protocols of the various assays are provided below.
A second phase is performed to convert the expanded CD34-negative progenitor cells into differentiated mucosal mast cells. These mucosal cultured human mast cells (“CHMC”) are derived from CD34+ cells isolated from umbilical cord blood and treated to form a proliferated population of CD34-negative progenitor cells, as described above. […] Also, the cytokine composition of the medium was modified such that it contained SCF (200 ng/mL) and recombinant human IL-6 (200 ng/mL; Peprotech, Catalog No. 200-06 reconstituted to 100 ug/mL in sterile 10 mM acetic acid) (“CM/SCF/IL-6 medium”).
Pellet CHMC cells (980 rpm, 10 min) and resuspend in pre-warmed MT. Add 65 ul of cells to each 96-well plate. Depending on the degranulation activity for each particular CHMC donor, load 1000-1500 cells/well. Mix four times followed by a 1 hr incubation at 37° C. […] Stimulate cells by adding 25 ul of 6× anti-IgE solution to the appropriate plates. Add 25 ul MT to un-stimulated control wells. Mix twice following addition of the anti-IgE. Incubate at 37° C. for 30 minutes. […] Spin plates at 1000 rpm for 10 min to pellet cells. Transfer 25 ul of supernatant to a 96-well black bottom plate and add 100 ul of freshly diluted tryptase substrate solution to each well. Incubate plates at room temperature for 30 min.
In Table 1, all reported values are IC50s (in μM). […] In Table 1, all reported values are IC50s (in μM).

[1] = low cell density CHMC, 8-point, read-out: LD Tryptase, CHMC, IgE, 8pt
[2] = low cell density CHMC, 8pt, read-out: LD Tryptase, CHMC, IgE, 8pt
[3] = CHMC low cell density, 8pt, read-out: LD Tryptase, CHMC, IgE, 8pt
[4] = CHMC low cell density, 3pt, read-out: LD Tryptase, CHMC, IgE, 3pt
[5] = low cell density CHMC, 3-point, read-out: LD Tryptase, CHMC, IgE, 3pt
[6] = low cell density CHMC, 3pt, read-out: LD Tryptase, CHMC, IgE, 3pt

Molecule: CC(=O)N1CCN(c2cccc(Nc3ncc(F)c(Nc4ccc5c(n4)NC(=O)C(C)(C)O5)n3)c2)CC1 [Compound 1076, N2-[3-(4-Acetylpiperazino)phenyl]-N4-(2,2-dimethyl-3-oxo-4H-5-pyrid[1,4]oxazin-6-yl)-5-fluoro-2,4-pyrimidinediamine]
IC50 [1]: < 10 µM

Molecule: C[C@H]1Oc2ccc(Nc3nc(Nc4cc5c6c(c4)c(CCO)cn6CCO5)ncc3F)cc2NC1=O [Compound 205, (R)-5-Fluoro-N2-[6-(2-hydroxyethyl)-2,3-dihydropyrrolo[1,2,3-d,e]benzoxazin-8-yl]-N4-(2-methyl-3-oxo-2H,4H-benz[1,4]oxazin-6-yl)-2,4-pyrimidinediamine]
IC50 [2]: < 10 µM

Molecule: CNC(=O)Cn1ccc2cc(Nc3ncc(F)c(Nc4ccc5c(c4)OCCO5)n3)ccc21 [Compound 655, N4-(3,4-Ethylenedioxyphenyl)-5-fluoro-N2-[1-(N-methylamino)carbonylmethyleneindol-5-yl]-2,4-pyrimidinediamine]
IC50 [3]: < 10 µM

Molecule: Cn1c(N2CCOCC2)nc2cc(Nc3ncc(F)c(Nc4ccc5c(n4)NC(=O)C(C)(C)O5)n3)ccc21 [Compound 946, N4-(2,2-Dimethyl-3-oxo-4H-5-pyrido[1,4]oxazin-6-yl)-5-fluoro-N2-[1-methyl-2-(4-morpholino)benzimidazol-5-yl]-2,4-pyrimidinediamine]
IC50 [4]: < 10 µM
IC50 [3]: < 10 µM

Molecule: CC(=O)N1CCN(c2cccc(Nc3ncc(F)c(Nc4ccc5c(n4)NC(=O)CO5)n3)c2)CC1 [Compound 1071, N2-[3-(4-Acetylpiperazino)phenyl]-5-fluoro-N4-(3-oxo-2H,4H-5-pyrid[1,4]oxazin-6-yl)-2,4-pyrimidinediamine]
IC50 [1]: < 10 µM

Molecule: CC(C)(C)C(=O)NCCCn1ncc2cc(Nc3ncc(F)c(Nc4ccc5c(n4)NC(=O)C(C)(C)O5)n3)ccc21 [Compound 852, N4-(2,2-Dimethyl-3-oxo-4H-5-pyrido[1,4]oxazin-6-yl)-5-fluoro-N2-[1-(3-pivalamidopropyl)indazol-5-yl]-2,4-pyrimidinediamine]
IC50 [3]: < 10 µM

Molecule: COc1cccc(Nc2ncc(F)c(Nc3ccc4c(n3)NC(=O)C(C)(C)O4)n2)c1C [Compound 1065, N4-(2,2-Dimethyl-3-oxo-4H-5-pyrid[1,4]oxazin-6-yl)-5-fluoro-N2-(3-methoxy-2-methylphenyl)-2,4-pyrimidinediamine]
IC50 [5]: < 10 µM

Molecule: N4-(2,2-Dimethyl-3-oxo-4H-5-pyrid[1,4]oxazin-6-yl)-5-fluoro-[1-(2-hydroxymethyl)-2-trifluoromethylbenzimidazol-5-yl]-2,4-pyrimidinediamine [Compound 924]
IC50 [3]: < 10 µM

Molecule: O=C1COc2cc(Nc3nc(Nc4ccc(-c5ncco5)cc4)ncc3F)ccc2N1 [Compound 241]
IC50 (Homo sapiens, Mast cell, low cell density CHMC, 8pt, read-out: LD Tryptase, CHMC, IgE, 8pt): < 10 µM

Molecule: CNC(=O)n1ccc2ccc(Nc3ncc(F)c(Nc4ccc5c(c4)NC(=O)C(C)(C)O5)n3)cc21 [Compound 347, N4-(2,2-Dimethyl-3-oxo-4H-benz[1,4]oxazin-6-yl)-N2-[1-(N-methylaminocarbony)lindol-6-yl)-5-fluoro-2,4-pyrimidinediamine]
IC50 [6]: < 10 µM

Molecule: CNC(=O)COc1cccc(Nc2ncc(F)c(Nc3ccc4c(c3)NC(=O)C(C)(C)S4)n2)c1 [Compound 294, N4-(2,2-Dimethyl-3-oxo-4H-benzo[1,4]thiazin-6-yl)-5-fluoro-N2-[3-(N-methylamino)carbonylmethyleneoxyphenyl]-2,4-pyrimidinediamine]
IC50 [6]: < 10 µM
IC50 [2]: < 10 µM

Molecule: CC1(C)C(=O)Nc2cc(Nc3nc(Nc4cccc(O)c4)ncc3F)ccc2S1(=O)=O [Compound 283, racemic-N4-(2,2-Dimethyl-1,1,3-trioxo-4H-benzo[1,4]thiazin-6-yl)-5-fluoro-N2-[3-hydoxyphenyl]-2,4-pyrimidinediamine]
IC50 [2]: < 10 µM

Molecule: (S)-5-Fluoro-[1-(2-hydroxymethyl)-2-trifluoromethylbenzimidazol-5-yl]-N4-(2-methyl-3-oxo-2H,4H-benz[1,4]oxazin-6-yl)-2,4-pyrimidinediamine [Compound 923]
IC50 [3]: < 10 µM

Molecule: CCOC(=O)N1CCN(c2ccc(Nc3ncc(F)c(Nc4ccc5c(n4)NC(=O)CO5)n3)cc2)CC1 [Compound 1072, N2-[4-(4-Ethoxycarbonylpiperazino)phenyl]-5-fluoro-N4-(3-oxo-2H,4H-5-pyrid[1,4]oxazin-6-yl)-2,4-pyrimidinediamine]
IC50 [1]: < 10 µM

Molecule: Cc1nn(C)c2cc(Nc3ncc(F)c(Nc4ccc5c(n4)NC(=O)C(C)(C)O5)n3)ccc12 [Compound 812, N2-(1,3-Dimethylindazol-6-yl)-N4-(2,2-dimethyl-3-oxo-4H-5-pyrid[1,4]oxazin-6-yl)-5-fluoro-2,4-pyrimidinediamine]
IC50 [3]: < 10 µM

Molecule: N4-(2,2-Dimethyl-3-oxo-4H-5-pyrid[1,4]oxazin-6-yl)-5-fluoro-N2-(4-methoxycarbonylphenyl)-2,4-pyrimidinediamine [Compound 1313]
IC50 [6]: < 10 µM

Molecule: CC1(C)Oc2ccc(Nc3nc(Nc4ccc5c(c4)nc(C(F)(F)F)n5CCCO)ncc3F)nc2NC1=O [Compound 941, N4-(2,2-Dimethyl-3-oxo-4H-5-pyrido[1,4]oxazin-6-yl)-5-fluoro-N2-[1-(3-hydroxypropyl)-2-trifluoromethylbenzimidazol-5-yl]-2,4-pyrimidinediamine]
IC50 [4]: < 10 µM
IC50 [3]: < 10 µM

Molecule: COC(=O)COc1cccc(Nc2ncc(F)c(Nc3ccc4c(c3)NC(=O)C(C)(C)O4)n2)c1C [Compound 1066, N4-(2,2-Dimethyl-3-oxo-4H-benz[1,4]oxazin-6-yl)-5-fluoro-N2-[3-methoxycarbonylmethyleneoxy-2-methylphenyl]-2,4-pyrimidinediamine]
IC50 [5]: < 10 µM

Molecule: COc1cc(Nc2ncc(F)c(Nc3ccc4c(n3)N(C)C(=O)C(C)(C)O4)n2)cc(OC)c1OC [Compound 689, 5-Fluoro-N4-(3-oxo-2,2,4-trimethyl-5-pyrid[1,4]oxazin-6-yl)-N2-(3,4,5-trimethoxyphenyl)-2,4-pyrimidinediamine]
IC50 [3]: < 10 µM

Molecule: CNC(=O)Cn1ccc2cc(Nc3ncc(F)c(Nc4ccc5c(n4)NC(=O)C(C)(C)O5)n3)ccc21 [Compound 683, N4-(2,2-Dimethyl-3-oxo-4H-5-pyrid[1,4]oxazin-6-yl)-5-fluoro-N2-[1-(N-methylamino)carbonylmethyleneindol-5-yl]-2,4-pyrimidinediamine]
IC50 [4]: < 10 µM
IC50 [3]: < 10 µM

The remaining lines, values ahead:

IC50 [1]: < 10 µM
Molecule: Cc1cc(Nc2ncc(F)c(Nc3ccc4c(n3)NC(=O)CO4)n2)cc(C)c1O [Compound 1069, N2-(3,5-Dimethyl-4-hydroxyphenyl)-5-fluoro-N4-(3-oxo-2H,4H-5-pyrid[1,4]oxazin-6-yl)-2,4-pyrimidinediamine]

IC50 [4]: > 10 µM
Molecule: COC(=O)CN1C(=O)C(C)(C)Oc2ccc(Nc3ccnc(Nc4ccc5c(n4)N(CC(=O)OC)C(=O)C(C)(C)O5)n3)nc21 [Compound 688, N2,N4-Bis(2,2-dimethyl-4-carbomethoxymethyl-3-oxo-5-pyrid[1,4]oxazin-6-yl)-2,4-pyrimidinediamine]

IC50 [6]: < 10 µM
Molecule: CC1(C)Sc2ccc(Nc3nc(Cl)ncc3F)cc2NC1=O [Compound 316, N2-Chloro-N4-(2,2,-dimethyl-3-oxo-4H-benzo[1,4]thiazin-6-yl)-5-fluoro-4-pyrimidinea mine]

IC50 [3]: < 10 µM
Molecule: N4-(2,2-Dimethyl-3-oxo-4H-benz[1,4]oxazin-6-yl)-N2-(1-methyl-2-trifluoromethylbenzimidazol-5-yl)-2,4-pyrimidinediamine [Compound 913]

IC50 [4]: < 10 µM
Molecule: CC1(C)Oc2ccc(Nc3ncc(F)c(Nc4ccc5c(n4)NC(=O)C(C)(C)O5)n3)nc2NC1=O [Compound 693, N2,N4-Bis(2,2-dimethyl-3-oxo-4H-5-pyrid[1,4]oxazin-6-yl)-5-fluoro-2,4-pyrimidinediamine]

IC50 [6]: < 10 µM
Molecule: N4-(2,2-Dimethyl-3-oxo-4H-5-pyrid[1,4]oxazin-6-yl)-5-fluoro-N2-(3-methoxycarbonylppyrid-2yl)-2,4-pyrimidinediamine [Compound 1314]

IC50 [2]: < 10 µM
Molecule: CNC(=O)COc1cccc(Nc2ncc(F)c(Nc3ccc4c(c3)NC(=O)CS4(=O)=O)n2)c1 [Compound 305, 5-Fluoro-N2-[3-(N-methylamino)carbonylmethyleneoxyphenyl]-N4-(1,1,3-trioxo-2H,4H-benzo[1,4]thiazin-6-yl)-2,4-pyrimidinediamine]

IC50 [4]: < 10 µM
Molecule: COC(=O)CN1C(=O)C(C)(C)Oc2ccc(N(CC(=O)OC)c3nc(Nc4cc(OC)c(OC)c(OC)c4)ncc3F)nc21 [Compound 691, N4-(2,2-Dimethyl-4-carbomethoxymethyl-3-oxo-5-pyrid[1,4]oxazin-6-yl)-5-fluoro-N4-carbomethoxymethyl-N2-(3,4,5-trimethoxyphenyl)-2,4-pyrimidinediamine]
